According to patent US6066484A, “Purine nucleosidase” (Suntory Limited, priority 1996, dated 2000):

Key:
purine nucleosidase [1] = test: Substrate specificity of purine nucleosidase by thin-layer chromatography; format: biochemical, Ochrobactrum anthropi; settings: for decomposition of purine nucleosides (in words): pH 5.5 and 60° C.; for Relative activity: thin-layer chromatography
Description: (§1) The reaction solution (200 μl) contained 0.5 mM of adenosine or inosine or 0.25 mM of guanosine as the substrate, 50 mM of acetate buffer at pH 4.5 and a sufficient amount of enzyme. The reaction was initiated by addition of the enzyme, and the reaction was conducted at 50° C. for 5 minutes. The reaction was terminated by addition of 20 μl of 15% perchloric acid, and after centrifugation (35,000 rpm, 10 min) the supernatant was analyzed qualitatively by thin-layer chromatography (TLC) and quantitatively by high-performance liquid chromatography. The analysis methods were as follows.
(1) Thin-layer chromatography
Plate: Kieselgel 60F254 (Merk)
Developing solution: n-butanol/isopropanol/H2 O/NH4 OH=1:7:2:0.2 (v/v/v/v) (for adenosine and guanosine substrates), n-butanol/acetic acid/H2 O=5:1:1 (v/v/v) (for inosine substrate)
The substrate specificity of the purine nucleosidase was determined by thin-layer chromatography (TLC).
(§2) The specific activity was measured under conditions of 50° C., pH 4.5. The Km and Vmax were measured under conditions of 30° C., pH 4.5. The relative activity was expressed according to the following measurement method.

purine nucleosidase [2] = test: Specific activity, Km and Vmax of purine nucleosidase; format: biochemical, Ochrobactrum anthropi; settings: pH 4.5; for Km / Vmax: 30° C.; for Specific activity: 50° C.
Description: as §1
(2) High-performance liquid chromatography
Eluent: 0.1 M sodium chlorate tetrahydrate, 0.1% (v/v) phosphoric acid
as §2

[3] = system: Aspergillus niger nucleosidase; settings: cited from earlier work
[4] = system: Active fraction 1 (purine nucleosidase activity); test: Purine nucleosidase activity of active fraction 1 (1st DEAE-Sephacel); format: biochemical, Ochrobactrum anthropi
Description: After suspending 20 g of the wet cells in 40 ml of 10 mM Tris-HCl buffer solution (pH 7.4) (hereunder referred to as "buffer"), they were disrupted in a Dynamill at 4° C. for 10 minutes. After filtering the disrupted cell suspension it was centrifuged (10,000 rpm, 60 min) and the supernatant was used as a cell-free extract. The cell-free extract (250 ml) was dialyzed for 12 hours against 5 L of buffer and then applied to a DEAE-Sephacel column (3×30 cm, 200 ml) which had been equilibrized with the buffer. The adsorbed protein was eluted with an NaCl concentration gradient from 0 to 1.0 M and the active fractions were recovered.
The purine nucleosidase activity at this time was split into two peaks (FIG. 1). Fraction nos. 46 to 69 were collected as the first active fraction and fraction nos. 85 to 101 were collected as the second active fraction.
as §1

[5] = system: Active fraction 2 (purine nucleosidase activity); test: Purine nucleosidase activity of active fraction 2 (1st DEAE-Sephacel); format: biochemical, Ochrobactrum anthropi
[6] = system: Bacillus cereus nucleosidase; test: Bacillus cereus nucleosidase, cell extracts; format: biochemical; settings: studies by the present inventors
Text: Based on studies by the present inventors using cell extracts, the activity against guanosine is low. Crithidia fasciculata nucleosidase has a high optimum pH of 8.5. Wort also contains various low molecular substances, sugars and proteins, and it has not yet been investigated whether known nucleosidases can actually act on them. Therefore, we screened natural sources for microorganism-derived purine nucleosidases which can utilize adenosine, inosine and guanosine as substrates under conditions of pH 5.0 to 5.5, 50 to 80° C. As a result, high purine nucleosidase activity was found in crushed cell solutions of Ochrobactrum anthropi.

Compound	decomposition of purine nucleosides (in words) (purine nucleosidase [1])	Relative activity (purine nucleosidase [1])	Km (purine nucleosidase [2])	Vmax (purine nucleosidase [2])	decomposition of substrate (in words) [3]	Specific activity, Active fraction 1 ([4]; 30° C.)	Specific activity, Active fraction 1 ([4]; 50° C.)	Specific activity, Active fraction 2 ([5]; 30° C.)	Specific activity, Active fraction 2 ([5]; 50° C.)	Specific activity (purine nucleosidase [2])	activity against substrate (in words) [6]
O=c1[nH]c(=O)c2ncn([C@@H]3O[C@H](CO)[C@@H](O)[C@H]3O)c2[nH]1 [xanthosine]	capable of decomposing	++++ (>50%)	63.8 µM	68 µmol/min/mg	cannot decompose	–	–	–	–	–	–
Nc1ncnc2c1ncn2[C@@H]1O[C@H](CO)[C@@H](O)[C@H]1O [adenosine]	capable of decomposing	++++ (>50%)	17.1 µM	28.5 µmol/min/mg	–	0.70 µmol/min/mg	3.6 µmol/min/mg	0.59 µmol/min/mg	0.45 µmol/min/mg	292 µmol/min/mg	–
Nc1nc2c(ncn2[C@@H]2O[C@H](CO)[C@@H](O)[C@H]2O)c(=O)[nH]1 [guanosine]	capable of decomposing	++++ (>50%)	53.9 µM	11.5 µmol/min/mg	–	0.44 µmol/min/mg	1.5 µmol/min/mg	0.33 µmol/min/mg	0.26 µmol/min/mg	63.3 µmol/min/mg	low
OC[C@H]1O[C@@H](n2cnc3c(O)ncnc32)[C@H](O)[C@@H]1O [inosine]	capable of decomposing	++++ (>50%)	29.6 µM	18.8 µmol/min/mg	–	1.02 µmol/min/mg	4.3 µmol/min/mg	0.63 µmol/min/mg	0.44 µmol/min/mg	177 µmol/min/mg	–
